Tests used:
[1] = system: Fadu; assay: In vitro antiproliferative assay (CCK-8), Fadu; assay type: cell-based; conditions: Homo sapiens, CCK-8, 72 h
Description: (§1) The proliferation of cancer cells was tested by CCK-8 assay. Briefly, cells were seeded in 96-well plate with about 5 × 10^3 cells in each well. The cells were treated with tested compounds after 24 h of incubation. CCK-8 reagent ([…]) was added to each well after 72 h of incubation, and cells were incubated at 37 °C for 4 h. The light absorbance at 450 nm was measured by using an Opsys microplate reader (Dynex Technologies, Chantilly, VA, USA).

[2] = system: MDA-MB-231; assay: In vitro antiproliferative assay (CCK-8), MDA-MB-231; assay type: cell-based; conditions: Homo sapiens, CCK-8, 72 h
Description: (§2) Compound L20 with good performances in both enzyme and K562 cell inhibitory tests were selected for further antiproliferative assay against various cell lines. K562, U266, U937, C6, Fadu, MDA-MB-231, MDA-MB-468, A549, A2780 and HepG2 cell lines were used in the cell-based anticancer evaluation of L20.
as §1, with “USA). Results are illustrated as percent of cell viability normalised to DMSO-treated control cells.” for “USA).”

[3] = system: HepG2; assay: In vitro antiproliferative assay (CCK-8), HepG2; assay type: cell-based; conditions: Homo sapiens, CCK-8, 72 h
Description: as §1

[4] = system: A549; assay: In vitro antiproliferative assay (CCK-8), A549; assay type: cell-based; conditions: Homo sapiens, CCK-8, 72 h
Description: as §1

[5] = system: K562 cells; assay: Cell apoptosis analysis by flow cytometry (Annexin V-BV421 / 7-AAD); conditions: 24 h, control 1.14%
Description: Cells were incubated with Annexin V-BV421 (Becton Dickinson, USA) and 7-AAD (Becton Dickinson, USA) double labelling for 30 min in the dark at room temperature and measured by flow cytometry (FACSAriaIII, Becton Dickinson, USA). The data was analysed using Flowjo-V10 software.

[6] = target: T1, HDAC1 (Homo sapiens, UniProt Q13547); assay: HDAC enzyme inhibitory selectivity test, HDAC1; assay type: biochemical
T1 construct: purchased BPS Bioscience
Description: (§3) Therefore, molecule L20 was evaluated in the HDAC enzyme inhibitory selectivity test against HDAC1, 2, 3 and 6 (Table 2).
(§4) All HDAC enzymes were purchased from BPS Bioscience. In short, 60 µL of recombinant HDAC enzyme solution was mixed with various concentrations of test compound (40 µL), and then incubated at 37 °C for 30 minutes. The reaction was terminated by adding 100 µL of imaging agent containing trypsin and trichostatin A (TSA). After standing for 20 min, the fluorescence intensity was measured at the excitation and emission wavelengths of 360 and 460 nm with a microplate reader. The inhibition rate was calculated from the fluorescence intensity readings of the test wells relative to the control wells, and the IC50 curve and value were determined by GraphPad Prism 6.0 software.

[7] = target: T2, HDAC3 (Homo sapiens, UniProt O15379); assay: HDAC enzyme inhibitory selectivity test, HDAC3; assay type: biochemical
T2 construct: purchased BPS Bioscience
Description: as §3, §4

[8] = system: A2780; assay: In vitro antiproliferative assay (CCK-8), A2780; assay type: cell-based; conditions: Homo sapiens, CCK-8, 72 h
Description: as §1

[9] = system: K562 cells; assay: Cell cycle analysis by flow cytometry (PI); conditions: 24 h, first peak in Figure 5
Description: After treatment, cells were collected and fixed with 70% pre-cold ethanol in PBS and stored at −20 °C overnight. Then washed the cells with PBS twice, and incubated with 100 µg/mL RNase I (Solarbio, China) at 37 °C for 1 h, stained with propidium iodide (PI, 10 µg/mL, Solarbio, China) for 30 min avoid light at room temperature. Finally, DNA content was measured by flow cytometry (FACSAriaIII, Becton Dickinson, USA). The data were analysed and fitted by ModFit software.

[10] = target: T3, HDAC2 (Homo sapiens, UniProt Q92769); assay: HDAC enzyme inhibitory selectivity test, HDAC2; assay type: biochemical
T3 construct: purchased BPS Bioscience
Description: as §3, §4

[11] = system: U266; assay: In vitro antiproliferative assay (CCK-8), U266; assay type: cell-based; conditions: Homo sapiens, U-266, CCK-8, 72 h
Description: as §1

[12] = system: K562 cells; assay: In vitro antiproliferative assay (CCK-8), K562; assay type: cell-based; conditions: Homo sapiens
Description: as §1

[13] = system: C6; assay: In vitro antiproliferative assay (CCK-8), C6; assay type: cell-based; conditions: Rattus norvegicus, CCK-8, 72 h
Description: as §1

[14] = system: U937; assay: In vitro antiproliferative assay (CCK-8), U937; assay type: cell-based; conditions: Homo sapiens, U-937, CCK-8, 72 h
Description: as §1

[15] = target: T4, HDAC6 (Homo sapiens, UniProt Q9UBN7); assay: HDAC enzyme inhibitory selectivity test, HDAC6; assay type: biochemical; conditions: mean of three experiments
T4 construct: purchased BPS Bioscience
T4 sequence (Q9UBN7 1-1215): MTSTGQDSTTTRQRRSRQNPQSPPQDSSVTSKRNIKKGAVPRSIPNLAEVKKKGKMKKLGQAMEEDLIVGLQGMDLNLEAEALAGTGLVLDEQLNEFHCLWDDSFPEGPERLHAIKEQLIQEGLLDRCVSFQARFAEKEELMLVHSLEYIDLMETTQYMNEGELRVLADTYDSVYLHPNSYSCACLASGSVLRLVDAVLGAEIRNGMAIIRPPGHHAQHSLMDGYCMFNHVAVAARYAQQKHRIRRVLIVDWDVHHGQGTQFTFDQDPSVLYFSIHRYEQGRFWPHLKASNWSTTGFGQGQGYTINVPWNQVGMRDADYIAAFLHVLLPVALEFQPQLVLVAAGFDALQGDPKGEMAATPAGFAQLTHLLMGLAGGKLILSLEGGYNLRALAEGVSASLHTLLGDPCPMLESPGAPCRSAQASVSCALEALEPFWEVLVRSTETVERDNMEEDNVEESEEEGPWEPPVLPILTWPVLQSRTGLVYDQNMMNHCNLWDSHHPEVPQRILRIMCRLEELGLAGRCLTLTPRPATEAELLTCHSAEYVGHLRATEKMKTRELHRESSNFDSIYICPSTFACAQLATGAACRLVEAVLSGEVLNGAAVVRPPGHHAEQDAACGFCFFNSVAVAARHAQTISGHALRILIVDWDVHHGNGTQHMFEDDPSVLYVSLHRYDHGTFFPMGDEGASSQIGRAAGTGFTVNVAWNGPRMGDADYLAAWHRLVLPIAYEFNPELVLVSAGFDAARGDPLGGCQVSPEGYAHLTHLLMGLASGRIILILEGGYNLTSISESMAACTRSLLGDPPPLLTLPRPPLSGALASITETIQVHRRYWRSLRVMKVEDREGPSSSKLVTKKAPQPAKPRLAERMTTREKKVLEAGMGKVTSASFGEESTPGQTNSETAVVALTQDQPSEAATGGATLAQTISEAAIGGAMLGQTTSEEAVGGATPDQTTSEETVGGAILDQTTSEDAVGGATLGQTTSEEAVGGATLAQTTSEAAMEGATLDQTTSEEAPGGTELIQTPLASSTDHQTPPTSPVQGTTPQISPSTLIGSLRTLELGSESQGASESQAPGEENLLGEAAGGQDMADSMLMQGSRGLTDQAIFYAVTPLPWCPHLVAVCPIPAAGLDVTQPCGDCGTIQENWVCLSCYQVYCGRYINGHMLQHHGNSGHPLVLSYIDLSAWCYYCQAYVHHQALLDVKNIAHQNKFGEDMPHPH
Description: as §3, §4

[16] = system: MDA-MB-468; assay: In vitro antiproliferative assay (CCK-8), MDA-MB-468; assay type: cell-based; conditions: Homo sapiens, CCK-8, 72 h
Description: as §2
as §1, with “USA). Results are illustrated as percent of cell viability normalised to DMSO-treated control cells.” for “USA).”

[17] = system: Hela nucleus extract containing a mixture of HDAC isoforms; assay: HDAC enzyme inhibitory screening against Hela nucleus extract; assay type: biochemical; conditions: at concentration of 1.0 µM, mean of three experiments
Description: The synthesised molecules were firstly screened against Hela nucleus extract containing a mixture of HDAC isoforms.
as §4

T1 sequence (Q13547 whole entry): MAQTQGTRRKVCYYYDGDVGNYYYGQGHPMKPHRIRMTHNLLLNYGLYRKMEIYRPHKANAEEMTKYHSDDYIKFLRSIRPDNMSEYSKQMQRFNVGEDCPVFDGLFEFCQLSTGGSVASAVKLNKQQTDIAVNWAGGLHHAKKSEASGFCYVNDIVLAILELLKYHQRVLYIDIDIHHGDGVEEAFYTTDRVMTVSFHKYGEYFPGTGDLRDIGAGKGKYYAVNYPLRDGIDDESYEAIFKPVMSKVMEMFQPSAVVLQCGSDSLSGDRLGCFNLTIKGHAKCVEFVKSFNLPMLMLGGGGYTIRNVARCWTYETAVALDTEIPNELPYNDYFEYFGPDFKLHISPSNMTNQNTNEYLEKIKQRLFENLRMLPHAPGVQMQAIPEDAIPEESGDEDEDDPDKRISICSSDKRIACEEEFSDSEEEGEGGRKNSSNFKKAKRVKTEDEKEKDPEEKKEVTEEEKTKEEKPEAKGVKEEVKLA
T3 sequence (Q92769 whole entry): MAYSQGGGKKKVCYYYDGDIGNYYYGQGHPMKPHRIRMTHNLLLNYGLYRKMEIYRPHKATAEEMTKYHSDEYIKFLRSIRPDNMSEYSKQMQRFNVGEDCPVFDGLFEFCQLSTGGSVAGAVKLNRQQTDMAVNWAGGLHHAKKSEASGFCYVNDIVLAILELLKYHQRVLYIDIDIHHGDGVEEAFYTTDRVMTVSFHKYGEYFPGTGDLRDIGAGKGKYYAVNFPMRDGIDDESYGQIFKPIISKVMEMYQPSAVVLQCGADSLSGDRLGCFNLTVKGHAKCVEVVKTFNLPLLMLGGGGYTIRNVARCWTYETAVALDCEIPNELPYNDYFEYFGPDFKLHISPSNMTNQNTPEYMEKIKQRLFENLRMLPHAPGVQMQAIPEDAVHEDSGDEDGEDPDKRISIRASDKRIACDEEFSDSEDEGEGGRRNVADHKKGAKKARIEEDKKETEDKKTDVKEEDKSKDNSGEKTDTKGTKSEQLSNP
T2 sequence (O15379 whole entry): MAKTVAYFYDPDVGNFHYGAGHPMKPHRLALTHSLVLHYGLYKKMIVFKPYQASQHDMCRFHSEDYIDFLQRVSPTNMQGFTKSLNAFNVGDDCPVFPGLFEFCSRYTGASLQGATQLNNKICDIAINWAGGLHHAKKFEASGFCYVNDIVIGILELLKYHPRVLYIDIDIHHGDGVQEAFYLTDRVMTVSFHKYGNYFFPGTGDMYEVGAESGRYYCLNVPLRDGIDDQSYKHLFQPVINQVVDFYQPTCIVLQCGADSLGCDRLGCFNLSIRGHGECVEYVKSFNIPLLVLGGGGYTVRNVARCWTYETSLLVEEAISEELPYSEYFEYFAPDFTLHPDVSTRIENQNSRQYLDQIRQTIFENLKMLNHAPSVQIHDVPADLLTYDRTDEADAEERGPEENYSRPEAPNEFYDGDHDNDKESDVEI
T2 sequence (Q9Y618 395-489 partner limits assumed): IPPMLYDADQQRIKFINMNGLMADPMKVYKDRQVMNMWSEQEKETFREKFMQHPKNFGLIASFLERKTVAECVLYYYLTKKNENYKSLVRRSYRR

COc1cc(Nc2nc(N3CCN(c4ncc(C(=O)NO)cn4)CC3)ncc2Cl)cc(OC)c1 [Compound L20, 2–(4-(5-chloro-4-((3,5-dimethoxyphenyl)amino)pyrimidin-2-yl)piperazin-1-yl)-N-hydroxypyrimidine-5-carboxamide]
IC50 [1]: 1.42 ± 0.05 µM
IC50 [2]: 1.63 ± 0.06 µM
IC50 [3]: 3.17 ± 0.15 µM
IC50 [4]: 1.06 ± 0.03 µM
apoptotic rate of K562 cells ([5]; 1 µM): 2.51%
apoptotic rate of K562 cells ([5]; 2 µM): 11.87%
apoptotic rate of K562 cells ([5]; 4 µM): 17.60%
selectivity index HDAC1 compared with HDAC6 ([6]; HDAC1 vs HDAC6): > 1462
IC50 ([6]; mean of three experiments): 0.684 ± 0.016 µM
selectivity index HDAC3 compared with HDAC6 ([7]; HDAC3 vs HDAC6): > 4608
IC50 ([7]; mean of three experiments): 0.217 ± 0.008 µM
IC50 [8]: 0.97 ± 0.02 µM
G0/G1 phase ratio of K562 cells ([9]; 1 µM): 19.34%
G0/G1 phase ratio of K562 cells ([9]; 2 µM): 44.85%
selectivity index HDAC2 compared with HDAC6 ([10]; HDAC2 vs HDAC6): > 392
IC50 ([10]; mean of three experiments): 2.55 ± 0.079 µM
IC50 [11]: 0.28 ± 0.01 µM
IC50 ([12]; CCK-8, 72 h): 0.34 ± 0.02 µM
inhibition at 1 µM ([12]; at concentration of 1.0 µM, mean of three experiments, read-out: K562 percentage inhibitory rate): 74.2 ± 1.18%
IC50 [13]: 1.98 ± 0.1 µM
IC50 [14]: 0.76 ± 0.03 µM
IC50 [15]: > 1000 µM
IC50 [16]: 2.23 ± 0.09 µM
HDACs percentage inhibitory rate [17]: 72.52 ± 1.26%
